The target in this experiment is T1, endogenous BCL-xL (Homo sapiens, UniProt Q07817).
T1 construct: endogenous in cells; host or cells: COR-L105 (ECACC No. 92031918); NCI-H1650 (ATCC No. CRL-5883)
T1 sequence (Q07817 whole entry): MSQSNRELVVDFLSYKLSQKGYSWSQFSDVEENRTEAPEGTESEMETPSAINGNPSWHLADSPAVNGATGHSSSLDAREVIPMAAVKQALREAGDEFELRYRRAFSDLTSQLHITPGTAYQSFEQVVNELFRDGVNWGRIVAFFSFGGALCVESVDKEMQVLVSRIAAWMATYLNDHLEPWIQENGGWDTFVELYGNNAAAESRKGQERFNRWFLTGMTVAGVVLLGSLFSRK
The experiment is described as follows: Degradation of endogenous BCL-xL in COR-L105 (ProteinSimple Jess). Conditions: COR-L105, 24 h, COR-L105, dose 300 nM, read-out: % BCL-xL vs. Untreated, COR-L105. The class given is cell-based. In outline:
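COR-L105 cells (2,000,000/well) treated 24 h at 37 °C with compound at 100–300 nM final, singlet, alongside untreated cells. RIPA lysates normalized by BCA to 1.5 mg/mL, then BCL-xL detected by capillary immunoassay (2–40 kDa Jess) comparing treated with untreated lysates.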
With `Cc1ncsc1-c1ccc(CNC(=O)[C@@H]2C[C@@H](O)CN2C(=O)[C@@H](NC(=O)CCCCCCC(=O)N2CCN(CC#Cc3ccc(OCCCc4sc(N5CCCc6c5nnc(Nc5nc7ccccc7s5)c6C)nc4C(=O)O)c(F)c3)CC2)C(C)(C)C)cc1` [Example 33, 2-(3-(benzo[d]thiazol-2-ylamino)-4-methyl-6,7-dihydropyrido [2,3-c]pyridazin-8(5H)-yl)-5-(3-(2-fluoro-4-(3-(4-(8-(((S)-1-((2S,4R)-4-hydroxy-2-((4-(4-methylthiazol-5-yl)benzyl)carbamoyl)pyrrolidin-1-yl)-3,3-dimethyl-1-oxobutan-2-yl)amino)-8-oxooctanoyl)piperazin-1-yl)prop-1-yn-1-yl)phenoxy)propyl) thiazole-4-carboxylic acid], the remaining activity at 0.3 µM amounted to 64.8%.
With `Cc1ncsc1-c1ccc([C@H](C)NC(=O)[C@@H]2C[C@@H](O)CN2C(=O)[C@@H](NC(=O)CCCCCCCCCCC(=O)N2CCN(CCOC34CC5(C)CC(C)(CC(Cn6ncc(-c7ccc(N8CCCc9c8nnc(Nc8nc%10ccccc%10s8)c9C)nc7C(=O)O)c6C)(C5)C3)C4)CC2)C(C)(C)C)cc1` [Example 47, 6-(3-(benzo[d]thiazol-2-ylamino)-4-methyl-6,7-dihydropyrido [2,3-c]pyridazin-8(5H)-yl)-3-(1-(((1r,3s,5R,7S)-3-(2-(4-(12-(((S)-1-((2S,4R)-4-hydroxy-2-(((S)-1-(4-(4-methylthiazol-5-yl)phenyl)ethyl)carbamoyl)pyrrolidin-1-yl)-3,3-dimethyl-1-oxobutan-2-yl)amino)-12-oxododecanoyl)piperazin-1-yl)ethoxy)-5,7-dimethyladamantan-1-yl)methyl)-5-methyl-1H-pyrazol-4-yl)picolinic acid], the remaining activity at 0.3 µM came to 22.3%.
Then `Cc1ncsc1-c1ccc([C@H](C)NC(=O)[C@@H]2C[C@@H](O)CN2C(=O)[C@@H](NC(=O)CCCC(=O)N2CCN(CC#Cc3ccc(OCCCc4sc(N5CCCc6c5nnc(Nc5nc7ccccc7s5)c6C)nc4C(=O)O)c(F)c3)CC2)C(C)(C)C)cc1` [Example 35, 2-(3-(benzo[d]thiazol-2-ylamino)-4-methyl-6,7-dihydropyrido [2,3-c]pyridazin-8(5H)-yl)-5-(3-(2-fluoro-4-(3-(4-(5-(((S)-1-((2S,4R)-4-hydroxy-2-(((S)-1-(4-(4-methylthiazol-5-yl)phenyl)ethyl)carbamoyl)pyrrolidin-1-yl)-3,3-dimethyl-1-oxobutan-2-yl)amino)-5-oxopentanoyl)piperazin-1-yl)prop-1-yn-1-yl)phenoxy)propyl)thiazole-4-carboxylic acid], with greater than 90%.
Take `Cc1ncsc1-c1ccc(CNC(=O)[C@@H]2CC(O)CN2C(=O)C(NC(=O)CCCCCCC(=O)N2CCN(CCOC34CC5(C)CC(C)(CC(Cn6ncc(-c7ccc(N8CCCc9c8nnc(Nc8nc%10ccccc%10s8)c9C)nc7C(=O)O)c6C)(C5)C3)C4)CC2)C(C)(C)C)cc1` (stereo in doubt) [Example 24, 6-[3-(1,3-benzothiazol-2-ylamino)-4-methyl-6,7-dihydro-5H-pyrido[2,3-c]pyridazin-8-yl]-3-[1-[[3-[2-[4-[8-[[(1S)-1-[(2S,4R)-4-hydroxy-2-[[4-(4-methylthiazol-5-yl)phenyl]methylcarbamoyl]pyrrolidine-1-carbonyl]-2,2-dimethyl-propyl]amino]-8-oxo-octanoyl]piperazin-1-yl]ethoxy]-5,7-dimethyl-1-adamantyl]methyl]-5-methyl-pyrazol-4-yl]pyridine-2-carboxylic acid]: the remaining activity at 0.3 µM is 40%.
Then `Cc1ncsc1-c1ccc([C@H](C)NC(=O)[C@@H]2C[C@@H](O)CN2C(=O)[C@@H](NC(=O)CCCCCCCCCCCN2CCN(CC#Cc3ccc(OCCCc4sc(N5CCCc6c5nnc(Nc5nc7ccccc7s5)c6C)nc4C(=O)O)c(F)c3)CC2)C(C)(C)C)cc1` [Example 51, 2-(3-(benzo[d]thiazol-2-ylamino)-4-methyl-6,7-dihydropyrido [2,3-c]pyridazin-8(5H)-yl)-5-(3-(2-fluoro-4-(3-(4-(12-(((S)-1-((2S,4R)-4-hydroxy-2-(((S)-1-(4-(4-methylthiazol-5-yl)phenyl)ethyl)carbamoyl)pyrrolidin-1-yl)-3,3-dimethyl-1-oxobutan-2-yl)amino)-12-oxododecyl)piperazin-1-yl)prop-1-yn-1-yl)phenoxy)propyl)thiazole-4-carboxylic acid], with 12.1%; and `Cc1ncsc1-c1ccc([C@H](C)NC(=O)[C@@H]2C[C@@H](O)CN2C(=O)[C@@H](NC(=O)CC23CC4CC(C2)CC(CC(=O)N2CCN(CC#Cc5ccc(OCCCc6sc(N7CCCc8c7nnc(Nc7nc9ccccc9s7)c8C)nc6C(=O)O)c(F)c5)CC2)(C4)C3)C(C)(C)C)cc1` [Example 42, 2-(3-(benzo[d]thiazol-2-ylamino)-4-methyl-6,7-dihydropyrido [2,3-c]pyridazin-8(5H)-yl)-5-(3-(2-fluoro-4-(3-(4-(2-((3S,5R)-3-(2-(((S)-1-((2S,4R)-4-hydroxy-2-(((S)-1-(4-(4-methylthiazol-5-yl)phenyl)ethyl)carbamoyl)pyrrolidin-1-yl)-3,3-dimethyl-1-oxobutan-2-yl)amino)-2-oxoethyl)adamantan-1-yl)acetyl)piperazin-1-yl)prop-1-yn-1-yl)phenoxy)propyl)thiazole-4-carboxylic acid], with 33.3%; and `Cc1ncsc1-c1ccc([C@H](C)NC(=O)[C@@H]2C[C@@H](O)CN2C(=O)[C@@H](NC(=O)CCCCCCCCCCC(=O)N2CCN(CC#Cc3ccc(OCCCc4sc(N5CCCc6c5nnc(Nc5nc7ccccc7s5)c6C)nc4C(=O)O)c(F)c3)CC2)C(C)(C)C)cc1` [Example 46, 2-(3-(benzo[d]thiazol-2-ylamino)-4-methyl-6,7-dihydropyrido [2,3-c]pyridazin-8(5H)-yl)-5-(3-(2-fluoro-4-(3-(4-(12-(((S)-1-((2S,4R)-4-hydroxy-2-(((S)-1-(4-(4-methylthiazol-5-yl)phenyl)ethyl)carbamoyl)pyrrolidin-1-yl)-3,3-dimethyl-1-oxobutan-2-yl)amino)-12-oxododecanoyl)piperazin-1-yl)prop-1-yn-1-yl)phenoxy)propyl)thiazole-4-carboxylic acid], with 22.6%.

Values taken from patent publication US20240376094A2, “SELECTIVE BCL-XL PROTAC COMPOUNDS AND METHODS OF USE” (Les Laboratoires Servier, priority 2021, published 2024).
